According to patent EP3613735A1, “NOVEL SIRT 1 ACTIVATOR AND MEDICINAL USE THEREOF” (Pusan National University Industry - University Cooperation …, priority 2017, dated 2018):

What was measured:
Assay type in all cases: in vivo, mouse
[1] = system: db/db mice; assay: Dietary intake and weight in obese animal model; conditions: oral 5 mg/kg daily for 4 weeks, compared to db/db mice group
Method: The metabolic disease control ability of Compound 32u was analyzed using db/db mice lacking an appetite-regulating hormone leptin receptor as an obese animal model. Compound 32u was orally administered to db/db mice (9 weeks old) at a concentration of 5 mg/kg daily for 4 weeks. The metabolic disease control ability of Compound 70c was analyzed using db/db mice lacking an appetite-regulating hormone leptin receptor as an obese animal model. Compound 70c was orally administered to db/db mice (9 weeks old) at a concentration of 5 mg/kg daily for 4 weeks.

[2] = system: CPT1 and ACOX1; assay: Liver mRNA expression of fat oxidation related genes, quantitative real-time PCR; conditions: db/db mice, oral 5 mg/kg daily for 4 weeks, treated vs db/db group
Method: Since obesity and insulin resistance are representative diseases directly related to the development of non-alcoholic fatty liver, the improvement effect of Compound 32u on fatty liver was analyzed. Compound 32u was orally administered to db/db mice (9 weeks old) at a concentration of 5 mg/kg daily for 4 weeks. First, the accumulation of fat in the liver, the most representative phenotype, was measured. Briefly, about 50 mg of liver was quantified in cold phosphate buffered saline (PBS) or 0.9% sodium chloride (NaCl) and crushed, followed by treating with mixed solvent of chloroform and methanol (MeOH) in a volume ratio of 2:1 and reacted for 2 hours. […] Thereafter, the amount of neutral fat was measured by absorbance using a neutral fat measurement kit (Stanbio laboratory, TX USA). In order to confirm the corresponding mechanism, mRNA expression of genes related to fat synthesis and degradation was analyzed. […] For the synthesized cDNA, a quantative real-time polymerase chain reaction (quantative real-time PCR) was performed to target the desired gene as a primer and quantify it in real time. Since obesity and insulin resistance are representative diseases directly related to the development of non-alcoholic fatty liver, the improvement effect of Compound 70c on fatty liver was analyzed. […] First, the accumulation of fat in the liver, the most representative phenotype, was measured. […]

[3] = system: p-IRE; assay: Liver endoplasmic reticulum stress marker, Western blot; conditions: db/db mice, oral treatment
Method: The cause of non-alcoholic liver disease (NAFLD) is unclear, but recent studies report that endoplasmic reticulum (ER) stress can be involved in fatty liver development and progression to non-alcoholic fatty hepatitis. Thus, in order to analyze the effect of Compound 32u on endoplasmic reticulum stress-related marker (p-IRE) was identified by Western blot. Briefly, about 50 mg of liver was quantified, homogenated and lysed to extract proteins. After quantifying the extracted protein and loading the same amount thereof in the polyacrylamide gel, the protein was separated according to molecular weight through SDS-PAGE (sodium dodecyl sulfate-polyacrylamide gel electrophoresis). Proteins separated according to molecular weight were transferred to a membrane by applying an electric field, and the desired protein was detected using a specific antibody. After reacting the primary antibody that specifically binds to the protein to be detected for at least 12 hours, the secondary antibody that specifically binds to the primary antibody is reacted for 1 hour, and the expression of the protein can be analyzed by treating the developer liquid containing the substrate HRP (horse radish peroxidase) present in the secondary antibody. […] Briefly, about 50 mg of liver was quantified, homogenated and lysed to extract proteins. […]

SMILES	dietary intake [1]	weight [1]	expression of fat oxidation related genes (CPT1 and ACOX1) [2]	protein expression of endoplasmic reticulum stress-related markers (p-IRE) [3]
O=C(Nc1ccccc1-c1nc2cc(CN3CCN(C4CCCCC4)CC3)ccc2o1)c1ccc2ccccc2c1 [Compound 70c, N-(2-(5-((4-Cyclohexylpiperazin-1-yl)methyl)benzo[d]oxazol-2-yl)phenyl)-2-naphthamide]	no difference	no difference	not significantly different	significantly reduced
Cl.O=C(Nc1ccccc1-c1cc2ccc(CN3CCNCC3)cc2o1)c1ccc2ccccc2c1 [Compound 32u, N-(2-(6-(Piperazin-1-ylmethyl)benzofuran-2-yl)phenyl)-2-naphthamide hydrochloride]	no difference	no difference	not significantly different	significantly reduced
